What was measured:
Type in all cases: cell-based
ACKR3 = ACKR3 (Homo sapiens, UniProt P25106); assay: ACKR3 β-arrestin recruitment assay (PathHunter, β-galactosidase complementation); conditions: for EC50: stable human ACKR3-β-arrestin-2-CHO cells, mean ± SEM, at least two independent experiments in duplicate; for Emax: read-out: ACKR3 β-arrestin % CXCL12 Emax ± SEM
Protocol: (§1) Compounds were evaluated for agonist activity using a β-arrestin recruitment assay based on β-galactosidase complementation (PathHunter, DiscoverX). Stable human ACKR3-β-arrestin-2-CHO cells (DiscoverX) were plated into 96-well white-walled assay plates at 15,000 cells/well in Cell Plating Reagent 2 (DiscoveRx) and incubated at 37° C., 5% CO2 overnight. The next day, test compounds were prepared at 10× concentration in DPBS/1% DMSO and 10 μL was added to the cells. CXCL-12 was included as a positive agonist control. Following a 1.5 hr incubation at 37° C., 55 μL of detection reagent (prepared according to the manufacturer's specifications) was added to each well. The plate was incubated at room temperature for 1 hr, after which luminescence was measured at 1 sec/well using an EnSpire multimode plate reader (PerkinElmer). Relative luminescence units (RLU) were plotted against the log of compound concentration and data were fit to a three-parameter logistic curve to generate EC50 values (GraphPad Prism). EC50 and % Emax values are reported as means±SEM and are the result of at least two independent experiments performed in duplicate. The CXCR4 assay was run similarly except that human CXCR4-C2Cl2 cells (DiscoverX) were plated at 20,000 cells/well in Cell Plating Reagent 9. The next day, the media was removed and cells were incubated with Cell Plating Reagent 4 for 3 hrs, after which the assay was conducted as described above.

human CXCR4 = target: T1, human CXCR4 (Homo sapiens, UniProt P61073); assay: CXCR4 β-arrestin recruitment assay (PathHunter); conditions: human CXCR4-C2Cl2 cells, relative to CXCL-12
T1 construct: host or cells: C2C12
T1 sequence (P61073 whole entry): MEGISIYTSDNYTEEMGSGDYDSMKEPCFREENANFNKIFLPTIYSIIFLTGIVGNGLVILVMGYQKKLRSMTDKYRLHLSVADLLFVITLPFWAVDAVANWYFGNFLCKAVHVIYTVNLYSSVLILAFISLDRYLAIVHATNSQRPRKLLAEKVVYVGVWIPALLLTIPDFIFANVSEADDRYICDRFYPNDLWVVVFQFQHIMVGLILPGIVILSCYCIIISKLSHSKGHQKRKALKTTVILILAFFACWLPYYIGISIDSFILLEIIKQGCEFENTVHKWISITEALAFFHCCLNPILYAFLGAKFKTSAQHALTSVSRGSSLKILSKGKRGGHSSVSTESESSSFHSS
Protocol: as §1

CaV 3.2 = target: T2, CaV 3.2 (Homo sapiens, UniProt O95180); assay: CaV 3.2 calcium assay in stable human CaV3.2-HEK293 cells; conditions: control agonist calcium chloride
T2 construct: expressed in transfected cells
T2 sequence (O95180 whole entry): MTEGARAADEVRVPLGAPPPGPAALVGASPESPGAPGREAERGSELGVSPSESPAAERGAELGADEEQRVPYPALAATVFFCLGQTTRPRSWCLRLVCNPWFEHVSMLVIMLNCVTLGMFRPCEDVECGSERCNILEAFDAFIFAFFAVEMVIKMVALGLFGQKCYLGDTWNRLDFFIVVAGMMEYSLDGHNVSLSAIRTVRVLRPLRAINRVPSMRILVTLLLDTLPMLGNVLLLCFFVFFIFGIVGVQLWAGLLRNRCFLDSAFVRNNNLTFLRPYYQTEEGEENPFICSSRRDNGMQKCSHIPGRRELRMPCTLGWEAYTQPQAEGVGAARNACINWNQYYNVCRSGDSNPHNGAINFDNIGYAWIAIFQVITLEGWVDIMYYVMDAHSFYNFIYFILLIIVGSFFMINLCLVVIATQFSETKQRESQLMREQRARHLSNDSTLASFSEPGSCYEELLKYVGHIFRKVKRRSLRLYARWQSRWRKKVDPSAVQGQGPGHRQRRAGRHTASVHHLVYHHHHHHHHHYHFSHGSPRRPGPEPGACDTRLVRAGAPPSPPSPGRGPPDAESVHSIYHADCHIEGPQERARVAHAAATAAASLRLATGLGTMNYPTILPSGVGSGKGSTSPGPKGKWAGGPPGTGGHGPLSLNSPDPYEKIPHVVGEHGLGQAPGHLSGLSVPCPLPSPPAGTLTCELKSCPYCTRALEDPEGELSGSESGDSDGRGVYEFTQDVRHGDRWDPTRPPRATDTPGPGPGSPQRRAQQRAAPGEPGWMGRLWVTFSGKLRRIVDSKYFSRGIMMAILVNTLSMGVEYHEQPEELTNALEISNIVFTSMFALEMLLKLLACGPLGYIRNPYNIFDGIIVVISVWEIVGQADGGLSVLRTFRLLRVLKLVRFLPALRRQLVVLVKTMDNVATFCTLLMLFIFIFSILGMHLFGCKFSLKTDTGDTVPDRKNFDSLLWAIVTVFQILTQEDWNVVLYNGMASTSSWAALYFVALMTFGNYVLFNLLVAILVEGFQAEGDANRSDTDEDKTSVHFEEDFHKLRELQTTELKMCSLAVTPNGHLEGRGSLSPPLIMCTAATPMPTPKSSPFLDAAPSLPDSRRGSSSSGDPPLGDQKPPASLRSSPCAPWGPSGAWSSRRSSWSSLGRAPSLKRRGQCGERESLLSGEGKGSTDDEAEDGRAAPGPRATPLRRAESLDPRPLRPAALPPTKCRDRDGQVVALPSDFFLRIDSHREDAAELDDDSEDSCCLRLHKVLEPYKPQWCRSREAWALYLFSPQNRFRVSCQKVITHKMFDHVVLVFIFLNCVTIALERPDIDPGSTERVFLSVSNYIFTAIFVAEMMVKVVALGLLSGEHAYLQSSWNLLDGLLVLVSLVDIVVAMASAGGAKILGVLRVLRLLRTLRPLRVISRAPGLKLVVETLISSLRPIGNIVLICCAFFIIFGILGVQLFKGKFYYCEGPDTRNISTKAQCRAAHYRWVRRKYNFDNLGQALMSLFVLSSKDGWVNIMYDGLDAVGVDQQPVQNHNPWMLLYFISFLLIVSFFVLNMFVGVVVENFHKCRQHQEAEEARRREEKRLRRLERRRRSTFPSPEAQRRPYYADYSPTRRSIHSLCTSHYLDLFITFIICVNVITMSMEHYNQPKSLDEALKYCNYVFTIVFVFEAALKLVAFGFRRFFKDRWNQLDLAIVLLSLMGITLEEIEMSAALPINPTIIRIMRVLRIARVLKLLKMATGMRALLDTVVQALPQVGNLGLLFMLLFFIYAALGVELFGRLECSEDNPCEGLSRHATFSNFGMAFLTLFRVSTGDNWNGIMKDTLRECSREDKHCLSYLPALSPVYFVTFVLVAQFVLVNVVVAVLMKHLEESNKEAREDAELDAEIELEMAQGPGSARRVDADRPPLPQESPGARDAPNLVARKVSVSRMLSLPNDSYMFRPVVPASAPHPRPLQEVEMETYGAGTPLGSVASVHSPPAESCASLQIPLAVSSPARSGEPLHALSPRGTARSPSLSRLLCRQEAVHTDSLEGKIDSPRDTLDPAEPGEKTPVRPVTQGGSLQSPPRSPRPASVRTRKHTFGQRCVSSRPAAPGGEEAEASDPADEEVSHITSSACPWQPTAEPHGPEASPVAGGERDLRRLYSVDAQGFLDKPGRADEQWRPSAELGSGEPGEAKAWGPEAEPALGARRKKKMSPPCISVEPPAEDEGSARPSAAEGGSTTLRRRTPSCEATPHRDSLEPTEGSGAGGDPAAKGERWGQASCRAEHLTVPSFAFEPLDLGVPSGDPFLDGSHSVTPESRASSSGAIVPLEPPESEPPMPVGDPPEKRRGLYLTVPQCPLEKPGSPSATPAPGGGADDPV
Protocol: (§2) Compounds were evaluated for kappa (KOR), mu (MOR), and delta (DOR) opioid receptor agonist and antagonist activity in three individual cell lines overexpressing Gαq16 (CHO-RD-HGA16, Molecular Devices) and the human kappa, mu, and delta opioid receptors, respectively. The day before the assay, cells were plated into 96-well black-walled assay plates at 30,000 cells/well in Ham's F12 supplemented with 10% fetal bovine serum, and 100 units of penicillin and streptomycin. The cells were incubated overnight at 37° C., 5% CO2. Prior to the assay, Calcium 5 dye (Molecular Devices) was reconstituted according to the manufacturer's instructions. The reconstituted dye was diluted 1:40 in pre-warmed (37° C.) assay buffer (1×HBSS, 20 mM HEPES, 2.5 mM probenecid, pH 7.4 at 37° C.). Growth medium was removed and the cells were gently washed with 100 μL of pre-warmed (37° C.) assay buffer. The cells were incubated for 45 minutes at 37° C., 5% CO2 in 200 μL of the diluted Calcium 5 dye. For the agonist screen, a single concentration of each test compound and receptor-specific controls (U69,593, DAMGO, and DPDPE for KOR, MOR, and DOR, respectively) were prepared at 10× the desired final concentration in 1% DMSO/assay buffer, aliquoted into a 96-well polystyrene plate, and warmed to 37° C. After the dye-loading incubation period, pretreatment solution was added to each well (25 μL of 9% DMSO/assay buffer) and, after 15 min, the plate was read with a FlexStation II (Molecular Devices). Calcium-mediated changes in fluorescence were monitored every 1.52 seconds over a 60 second time period, with the FlexStation II adding 50 μL of test compounds at the 19 second time point (excitation at 485 nm, detection at 525 nm). Peak kinetic reduction (SoftMax, Molecular Devices) relative fluorescence units (RFU) were used to calculate % control agonist Emax with the equation % Emax=(test compound RFU/control agonist RFU)×100. For the antagonist screens, the same procedure was followed except that the pretreatment solution consisted of the test compounds (prepared at […] the desired final concentration in 9% DMSO/assay buffer) and the FlexStation added the EC60 concentration (prepared at 10× the desired final concentration in 1% DMSO/assay buffer) of each respective control agonist. Peak RFU were used to calculate % control EC60 inhibition with the equation % inhibition=((EC60 RFU−test compound RFU)/EC60 RFU)×100. When IC50 determinations were made, the same antagonist screen procedure was followed except that cells were pretreated with 8-pt concentration-response curves of the test compounds. Peak RFU were plotted against the log of compound concentration using non-linear regression analysis to generate IC50 values (GraphPad Prism). Each test sample was analyzed in duplicate in two independent experiments.
Compounds were evaluated for activity at CaV 3.2 using stable human CaV3.2-HEK293 cells and the control agonist calcium chloride. The day before the assay, cells were plated into 96-well black-walled assay plates coated with poly-D-lysine in DMEM-F12 supplemented with 10% fetal bovine serum, 100 units penicillin/streptomycin, and 500 μM sodium pyruvate, and incubated at 37° C., 5% CO2 overnight. Prior to the assay, Calcium 5 dye (Molecular Devices) was reconstituted according to the manufacturer instructions. The reconstituted dye was diluted 1:10 in pre-warmed (37° C.) assay buffer (1×HBSS, […], […], pH 7.4 at 37° C.). The cells were incubated for 45 minutes at 37° C., 5% CO2 in 200 μL of the diluted Calcium 5 dye. Compounds were prepared as described above and the plate was read with a FLIPR Tetra (Molecular Devices). Calcium-mediated changes in fluorescence were monitored every 1 second over a 60 second time period, with the Tetra adding 25 μL of appropriate compound at the 10 second time point (excitation at 470-495 nm, detection at 515-575 nm). […]

KOR = KOR (Homo sapiens, UniProt P41145); assay: KOR calcium mobilization agonist/antagonist screen (CHO-RD-HGA16 cells); set-up: host or cells: CHO-RD-HGA16; conditions: single concentration; for Emax: CHO-RD-HGA16, agonist screen, control agonist U69,593; for KOR Calcium % U69, 593 Inhibition: antagonist screen, vs EC60 of U69,593
Chain of KOR (P41145 whole entry): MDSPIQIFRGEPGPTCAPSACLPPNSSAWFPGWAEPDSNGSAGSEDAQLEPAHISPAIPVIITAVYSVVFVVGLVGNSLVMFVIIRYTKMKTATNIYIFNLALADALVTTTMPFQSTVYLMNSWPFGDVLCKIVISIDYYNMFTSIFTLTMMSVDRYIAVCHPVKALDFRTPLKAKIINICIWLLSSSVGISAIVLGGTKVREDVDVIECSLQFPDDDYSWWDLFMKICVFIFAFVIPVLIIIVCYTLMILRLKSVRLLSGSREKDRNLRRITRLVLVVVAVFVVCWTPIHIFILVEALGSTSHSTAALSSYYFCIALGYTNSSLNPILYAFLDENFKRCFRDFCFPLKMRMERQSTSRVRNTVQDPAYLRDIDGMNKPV
Protocol: as §2

MOR = MOR (Homo sapiens, UniProt P35372); assay: MOR calcium mobilization agonist/antagonist screen (CHO-RD-HGA16 cells); set-up: host or cells: CHO-RD-HGA16; conditions: single concentration; for Emax: CHO-RD-HGA16, agonist screen, control agonist DAMGO; for MOR Calcium % DAMGO Inhibition: antagonist screen, vs EC60 of DAMGO
Chain of MOR (P35372 whole entry): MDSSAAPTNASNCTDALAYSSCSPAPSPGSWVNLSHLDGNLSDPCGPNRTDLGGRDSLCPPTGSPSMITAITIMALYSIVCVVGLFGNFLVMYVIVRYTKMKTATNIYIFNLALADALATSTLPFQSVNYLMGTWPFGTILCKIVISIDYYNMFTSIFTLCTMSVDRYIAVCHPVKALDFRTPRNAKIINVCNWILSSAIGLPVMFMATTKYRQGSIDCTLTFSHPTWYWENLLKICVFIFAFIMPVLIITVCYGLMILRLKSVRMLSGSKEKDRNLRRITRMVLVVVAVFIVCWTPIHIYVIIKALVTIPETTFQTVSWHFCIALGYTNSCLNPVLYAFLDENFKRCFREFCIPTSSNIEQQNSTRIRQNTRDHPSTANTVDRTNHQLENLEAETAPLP
Protocol: as §2

DOR = DOR (Homo sapiens, UniProt P41143); assay: DOR calcium mobilization agonist/antagonist screen (CHO-RD-HGA16 cells); set-up: host or cells: CHO-RD-HGA16; conditions: single concentration; for Emax: CHO-RD-HGA16, agonist screen, control agonist DPDPE; for DOR Calcium % DPDPE Inhibition: antagonist screen, vs EC60 of DPDPE
Chain of DOR (P41143 whole entry): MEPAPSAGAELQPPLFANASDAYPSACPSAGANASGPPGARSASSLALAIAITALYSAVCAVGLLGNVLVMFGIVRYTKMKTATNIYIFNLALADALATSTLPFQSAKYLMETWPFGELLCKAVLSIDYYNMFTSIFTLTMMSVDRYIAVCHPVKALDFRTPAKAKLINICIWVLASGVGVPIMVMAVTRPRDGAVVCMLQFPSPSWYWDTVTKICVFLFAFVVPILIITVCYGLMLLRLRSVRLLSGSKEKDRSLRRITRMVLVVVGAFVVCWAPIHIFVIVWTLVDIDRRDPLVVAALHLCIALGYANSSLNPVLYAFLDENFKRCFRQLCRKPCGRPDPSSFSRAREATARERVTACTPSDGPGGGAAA
Protocol: as §2

Chain of ACKR3 (P25106 whole entry): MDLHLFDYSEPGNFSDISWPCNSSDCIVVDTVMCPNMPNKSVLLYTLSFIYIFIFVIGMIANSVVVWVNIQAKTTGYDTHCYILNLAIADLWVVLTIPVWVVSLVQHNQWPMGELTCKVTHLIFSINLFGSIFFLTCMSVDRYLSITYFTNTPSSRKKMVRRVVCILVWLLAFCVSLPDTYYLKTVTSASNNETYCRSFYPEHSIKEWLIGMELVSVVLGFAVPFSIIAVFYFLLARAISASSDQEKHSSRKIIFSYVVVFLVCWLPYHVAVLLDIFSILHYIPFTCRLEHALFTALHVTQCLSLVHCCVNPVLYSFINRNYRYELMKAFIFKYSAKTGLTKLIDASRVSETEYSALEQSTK

| Compound | EC50 (ACKR3) [µM] | CXCR4 β-arrestin % CXCL-12Emax (n = 2) (human CXCR4) [%] | CaV 3.2 % CaCl2 Inhibition (CaV 3.2) [%] | Emax (KOR) [%] | KOR Calcium % U69, 593 Inhibition (KOR) [%] | Emax (MOR) [%] | MOR Calcium % DAMGO Inhibition (MOR) [%] | Emax (DOR) [%] | DOR Calcium % DPDPE Inhibition (DOR) [%] | Emax (ACKR3) [%] |
| --- | --- | --- | --- | --- | --- | --- | --- | --- | --- | --- |
| CCOC(=O)c1[nH]c2ccccc2c1CN1CCC(C(=O)OC)CC1 [WW-6, ethyl 3-{[4-(methoxycarbonyl)piperidin-1-yl]methyl}-1H-indole-2-carboxylate] | > 10 | 7 | 19 | 0 | 22 | 0 | 11 | 0 | 1 | – |
| C/C=C1/CN(Cc2ccc(OC)cc2)CC[C@H]1C(=O)c1cc2ccccc2[nH]1 [WW-7, (3E,4R)-(3-ethylidene-1-(4-methoxybenzyl)piperidin-4-yl)(1H-indol-2-yl)methanone] | 1.87 ± 0.096 | 0 | 50 | 14 | 38 | 2 | 14 | 6 | 16 | 139 ± 2 |
| C/C=C1/CNCC[C@H]1C(=O)c1cc2ccccc2[nH]1 [WW-8, (3E,4R)-(3-ethylidenepiperidin-4-yl)(1H-indol-2-yl)methanone] | > 10 | 4 | −14 | 3 | 4 | 1 | 3 | 5 | 3 | – |
| C/C=C1/CN(CCc2ccc(F)cc2)CC[C@H]1C(=O)c1cc2ccccc2[nH]1 [WW-9, [(3E,4R)-3-ethylidene-1-(4-fluorophenethyl)piperidin-4-yl](1H-indol-2-yl)methanone] | 2.07 ± 0.18 | 10 | 45 | 1 | 23 | 0 | 34 | 0 | 31 | 132 ± 6 |
| C/C=C1/CN(CC(C)C)CC[C@H]1C(=O)c1cc2ccccc2[nH]1 [WW-10, [(3E,4R)-3-ethylidene-1-(2-methylpropyl)piperidin-4-yl](1H-indol-2-yl)methanone] | > 10 | 2 | −3 | 7 | 8 | 1 | 0 | 4 | 5 | – |
| C/C=C1/CN(CCC)CC[C@H]1C(=O)c1cc2ccccc2[nH]1 [WW-14, [(3E,4R)-3-ethylidene-1-propylpiperidin-4-yl](1H-indol-2-yl)methanone] | 3.28 ± 0.39 | 8 | 5 | 3 | 6 | 1 | 1 | 5 | 0 | 84 ± 6 |
| CCC1CN2CC[C@H]1C(=O)c1[nH]c3ccccc3c1C2 (stereo partly drawn) [WW-15, (5R)-4-ethyl-1,4,5,7-tetrahydro-2,5-ethanoazocino[4,3-b]indol-6(3H)-one] | > 10 | 7 | 2 | 20 | 18 | 0 | 7 | 0 | 3 | – |
| C=C1c2[nH]c3ccccc3c2CN2CC[C@@H]1/C(=C\C)C2 [WW-16, (4E,5R)-4-ethylidene-6-methylidene-1,3,4,5,6,7-hexahydro-2,5-ethanoazocino[4,3-b]indole] | 4.62 ± 0.41 | 6 | 21 | 2 | 23 | 0 | 15 | 0 | 18 | 81 ± 5 |
| CCOC(=O)C1CCN(Cc2c[nH]c3ccccc23)CC1 [WW-17, ethyl 1-(1H-indol-3-ylmethyl)piperidine-4-carboxylate] | 4.81 ± 0.45 | 7 | −11 | 1 | 5 | 1 | 4 | 0 | 11 | 146 ± 6 |

Source: US20240059688A1, “CONOLIDINE ANALOGUES AS SELECTIVE ACKR3 MODULATORS FOR THE TREATMENT OF CANCER” (Luxembourg Institute of Health (LIH), priority 2020, published 2024)
